Reference: US20120129834A1, “SEROTONIN RECEPTOR ANTAGONISTS FOR USE IN THE TREATMENT OF HUNTINGTON'S DISEASE” (BUCK INSTITUTE FOR RESEARCH ON AGING, priority 2010, published 2012)
Entries after “also recorded” stand apart in the source; their conditions may differ. Blank lines part the entries; values can stand above or below the compound they belong to.

How the values were obtained:
STHdh111Q/111Q cells = assay: viability (ATP) assay of cell death in serum deprived STHdh111Q/111Q cells (Prestwick library screen and dose/response); type: cell-based; conditions: for loss of viability (ATP levels): dose/response, STHdh111Q/111Q serum deprivation model, FIG. 17 upper panel, n=3/dose; for huntingtin-mediated cell death: screen of the Prestwick Chemical library, cell-based assay of mutant huntingtin-mediated cell death
Description: Viability as measured by ATP levels (normalized to cell number) in cells after 24 h of serum deprivation. Data are show as percent DMSO control (100%). […]
(§1) This library is composed of 1,200 marketed drugs with favorable safety, bioavailability and efficacy properties.

caspase-3/7 = assay: caspase activation assay, STHdh111Q/111Q serum deprivation model; type: cell-based; conditions: dose/response, FIG. 17 lower panel, n=3/dose
R6/2 mouse model of HD [1] = assay: rotarod performance of R6/2 HD mice; type: in vivo; conditions: for rotarod performance / rotarod deficit: at 9 weeks of age, 10 mg/kg
R6/2 mouse model of HD [2] = assay: open field behavior analysis in R6/2 mice; type: in vivo; conditions: treated vs control
Excerpt: as §1

R6/2 mouse model of HD [3] = assay: lifespan of R6/2 mice; type: in vivo; conditions: 10 mg/kg IP daily, treatment groups compared
Excerpt: This may reflect a specific mechanism of action for pizotifen.

[4] = weight loss in the mouse model; type: in vivo; conditions: 7.5 mg/kg, FIG. 21
ERK pathway = assay: activation of the ERK pathway in vivo (striatum, cortex); parameters: species or system mouse; conditions: FIG. 23
DARPP-32 = DARPP-32 expression as measure of disease progression; type: in vivo; conditions: mouse model of HD, FIG. 24 panels A-C

SMILES: CN1CCC(=C2c3ccccc3C=Cc3ccccc32)CC1.Cl [Cyproheptadine, 4-(5H-dibenzo[a,d]cyclohepten-5-ylidene)-1-methylpiperidine hydrochloride]
loss of viability (ATP levels) (STHdh111Q/111Q cells): rescue loss of viability
huntingtin-mediated cell death (STHdh111Q/111Q cells): reproducibly suppress huntingtin-mediated cell death in a dose-dependent manner

caspase-3/7 activation (caspase-3/7): rescue
SMILES: CN1CCN(C2=Nc3ccccc3Oc3ccc(Cl)cc32)CC1 [Loxapine, 2-Chloro-11-(4-methylpiperazin-1-yl)dibenzo[b,f][1,4]oxazepine]
loss of viability (ATP levels) (STHdh111Q/111Q cells): rescue loss of viability
huntingtin-mediated cell death (STHdh111Q/111Q cells): reproducibly suppress huntingtin-mediated cell death in a dose-dependent manner

SMILES: CN1CCC(=C2c3ccccc3CCc3sccc32)CC1 [Pizotifen, 4-(1-methyl-4-piperidylidine)-9,10-dihydro-4H-benzo-[4,5]cyclohepta[1,2]-thiophene]
loss of viability (ATP levels) (STHdh111Q/111Q cells): rescue loss of viability
huntingtin-mediated cell death (STHdh111Q/111Q cells): reproducibly suppress huntingtin-mediated cell death in a dose-dependent manner
dose dependence of correction of rotarod (R6/2 mouse model of HD [1]; FIG. 20): dose-dependent effect; also recorded: dose dependent response
rotarod performance (R6/2 mouse model of HD [1]; R6/2 mice, 10 mg/kg IP daily from 5 weeks of age, after one week of treatment): improved
rotarod performance / rotarod deficit (R6/2 mouse model of HD [1]; R6/2 mice, 10 mg/kg IP daily from 5 weeks of age): significant beneficial effects
rotarod performance / rotarod deficit (R6/2 mouse model of HD [1]; R6/2 mice, 10 mg/kg IP daily from 5 weeks of age, listed as pizotifin): corrects the rotarod deficit to near wild-type levels
rotarod performance (R6/2 mouse model of HD [1]; R6/2 mice, 10 mg/kg IP daily, 6-week old group, after three days of treatment): significant improvement
motor deficits (Rotarod performance) (R6/2 mouse model of HD [1]; R6/2 mice, two independent studies): robustly correct motor deficits (i.e. Rotarod performance) in R6/2 to near wild-type levels
open field, general activity level (R6/2 mouse model of HD [2]): general activity level of treated animals was normal
open field, general activity level (R6/2 mouse model of HD [2]; listed as pizotifen): no statistical differences
lifespan (R6/2 mouse model of HD [3]): no statistical differences
weight loss [4]: doesn't improve or worsen weight loss
activation of the ERK pathway in cortex (ERK pathway; cortex): not observed; also recorded: not cortex activation
activation of the ERK pathway in striatum (ERK pathway; striatum): activation of the ERK pathway in vivo; also recorded: striatal, but not cortex activation
DARPP-32 decrease (measure of disease progression) (DARPP-32): rescued
